Where two headings read alike, the source gives them in different places.
Key:
[1] = tested on: Xanthomonas campestris B-610; experiment: Agar-well diffusion, bactericidal activity; format: cell-based; settings: Xanthomonas campestris
Procedure, shortened: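 Agar-well diffusion on GYCa agar (pH 7.2–7.4) seeded with bacterial suspension; 150 μL compound solution placed in 6-mm wells. Inhibition zone width measured after 36–40 h incubation.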

[2] = tested on: Phytophthora cactorum VKM F-985; experiment: Mycelial radial growth inhibition; format: cell-based; settings: Phytophthora cactorum; for inhibition of growth at 1 µM: 1 nmol/mL; for inhibition of growth at 1 µM / inhibition of growth at 5 µM / inhibition of growth at 15 µM / inhibition of growth / inhibition of growth at 40 µM: read-out: Inhibition value, I (%); for inhibition of growth at 5 µM: 5 nmol/mL; for inhibition of growth at 15 µM: 15 nmol/mL; for inhibition of growth: 27 nmol/mL; for inhibition of growth at 40 µM: 40 nmol/mL
Procedure, shortened: (§1)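 Compounds mixed into molten GPY agar at various concentrations; centre inoculated with a 5-mm mycelial plug from 10-day cultures and incubated at 27 °C. Colony diameter compared with untreated control until control plate was covered (usually 12 days); ≥4 replicates in two experiments.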

[3] = tested on: Fusarium oxysporum IBPPM 543; experiment: Mycelial radial growth inhibition; format: cell-based; settings: Fusarium oxysporum; for inhibition of growth at 1 µM: 1 nmol/mL; for inhibition of growth at 1 µM / inhibition of growth at 5 µM / inhibition of growth at 20 µM / inhibition of growth at 40 µM: read-out: Inhibition value, I (%); for inhibition of growth at 5 µM: 5 nmol/mL; for inhibition of growth at 20 µM: 20 nmol/mL; for inhibition of growth at 40 µM: 40 nmol/mL
Procedure, shortened: as §1

[4] = tested on: Pseudomonas fluorescens EL-2.1; experiment: Agar-well diffusion, bactericidal activity; format: cell-based; settings: Pseudomonas fluorescens, EL2.1, 2 mM/L
Procedure, shortened: (§2)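 Bacteria spread on agar (BP medium; GYCa for X. campestris; pH 7.2–7.4) with 6-mm wells, each receiving 150 μL compound solution. Cultures grown at 28 °C; growth-inhibition zone width measured after 36–40 h.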

[5] = tested on: Micrococcus luteus B-109; experiment: Agar-well diffusion, bactericidal activity; format: cell-based; settings: Micrococcus luteus
Procedure, shortened: as §2

[6] = tested on: Pectobacterium atrosepticum 1043; experiment: Agar-well diffusion, bactericidal activity; format: cell-based; settings: Pectobacterium atrosepticum, 1043, 2 mM/L
Procedure, shortened: as §2

[7] = tested on: Pectobacterium carotovorum subsp. carotovorum MI; experiment: Agar-well diffusion, bactericidal activity; format: cell-based; settings: Pectobacterium carotovorum, 2 mM/L
Procedure, shortened: as §2

[8] = tested on: five representative phytopathogens; experiment: Agar-well diffusion, bactericidal activity over the panel of phytopathogens; format: cell-based
Procedure, shortened: as §2

[9] = 120 h, age of the fungus 5 days
[10] = 168 h, age of the fungus 7 days
[11] = 216 h, age of the fungus 9 days
[12] = IBPPM543, 72 h, age of the fungus 3 days
[13] = IBPPM543, 120 h, age of the fungus 5 days
[14] = IBPPM543, 168 h, age of the fungus 7 days
[15] = IBPPM543, 216 h, age of the fungus 9 days
[16] = Table S3, read-out: Inhibition zone width (mm), not less

Q: Which zone of inhibition at 2000 µM ([1]; B610, 2 mM/L, average of 3 experiments, read-out: width of the inhibition zone (mm), X. campestris) does the source give for `O=C(C[n+]1ccccc1)NN=C1C(=O)N(Cc2c(F)cccc2Cl)c2ccc(F)cc21.[Cl-]` [Compound 5b, 1-(2-(2-(5-Fluoro-1-(6-chloro-2-fluorobenzyl)-2-oxoindolin-3-ylidene)hydrazinyl)-2-oxoethyl)pyridin-1-ium chloride] here?
A: The zone of inhibition at 2000 µM was 3 mm.

Q: And the zone of inhibition at 2000 µM ([1]; B610, Table S3, 2 mM/L, read-out: Inhibition zone width (mm), not less)?
A: The zone of inhibition at 2000 µM was ≥ 3 mm.

Q: What about the melting point of the same compound?
A: The melting point was 152 to 153 °C.

Q: What about the inhibition of growth at 1 µM ([2]; 72 h, age of the fungus 3 days) of the same compound?
A: The inhibition of growth at 1 µM was 18%.

Q: What about the inhibition of growth at 5 µM ([2]; 72 h, age of the fungus 3 days) of the same compound?
A: Its inhibition of growth at 5 µM is 27%.

Q: What about the inhibition of growth at 15 µM ([2]; 72 h, age of the fungus 3 days) of the same compound?
A: The inhibition of growth at 15 µM was 30%.

Q: What about the inhibition of growth ([2]; 72 h, age of the fungus 3 days) of the same compound?
A: The inhibition of growth was 33%.

Q: What about the inhibition of growth at 40 µM ([2]; 72 h, age of the fungus 3 days) of the same compound?
A: The inhibition of growth at 40 µM was 44%.

Q: What about the EC50 ([2]; 120 h, day 5, read-out: EC50, µg/mL at Day 5, P. cactorum) of the same compound?
A: The EC50 was 18.2 µg/mL.

Q: What about the inhibition of growth at 1 µM [2, 9] of the same compound?
A: Its inhibition of growth at 1 µM is 26%.

Q: What about the inhibition of growth at 5 µM [2, 9] of the same compound?
A: Its inhibition of growth at 5 µM is 35%.

Q: And the inhibition of growth at 15 µM [2, 9]?
A: The inhibition of growth at 15 µM was 38%.

Q: What about the inhibition of growth [2, 9] of the same compound?
A: The inhibition of growth was 43%.

Q: What about the inhibition of growth at 40 µM [2, 9] of the same compound?
A: Its inhibition of growth at 40 µM is 50%.

Q: And the inhibition of growth at 1 µM [2, 10]?
A: The inhibition of growth at 1 µM was 11%.

Q: What about the inhibition of growth at 5 µM [2, 10] of the same compound?
A: The inhibition of growth at 5 µM was 24%.

Q: What about the inhibition of growth at 15 µM [2, 10] of the same compound?
A: The inhibition of growth at 15 µM was 29%.

Q: What about the inhibition of growth [2, 10] of the same compound?
A: The inhibition of growth was 31%.

Q: And the inhibition of growth at 40 µM [2, 10]?
A: The inhibition of growth at 40 µM was 44%.

Q: What about the inhibition of growth at 1 µM [2, 11] of the same compound?
A: Its inhibition of growth at 1 µM is 6%.

Q: And the inhibition of growth at 5 µM [2, 11]?
A: The inhibition of growth at 5 µM was 16%.

Q: What about the inhibition of growth at 15 µM [2, 11] of the same compound?
A: The inhibition of growth at 15 µM was 19%.

Q: And the inhibition of growth [2, 11]?
A: The inhibition of growth was 26%.

Q: What about the inhibition of growth at 40 µM [2, 11] of the same compound?
A: Its inhibition of growth at 40 µM is 39%.

Q: And the inhibition of growth at 1 µM [3, 12]?
A: Its inhibition of growth at 1 µM is 9%.

Q: What about the inhibition of growth at 5 µM [3, 12] of the same compound?
A: Its inhibition of growth at 5 µM is 33%.

Q: And the inhibition of growth at 20 µM [3, 12]?
A: Its inhibition of growth at 20 µM is 41%.

Q: What about the inhibition of growth at 40 µM [3, 12] of the same compound?
A: The inhibition of growth at 40 µM was 53%.

Q: What about the EC50 ([3]; IBPPM543, 120 h, day 5, read-out: EC50, µg/mL at Day 5, F. oxysporum) of the same compound?
A: The EC50 was 14.8 µg/mL.

Q: What about the inhibition of growth at 1 µM [3, 13] of the same compound?
A: The inhibition of growth at 1 µM was 10%.

Q: And the inhibition of growth at 5 µM [3, 13]?
A: Its inhibition of growth at 5 µM is 34%.

Q: And the inhibition of growth at 20 µM [3, 13]?
A: Its inhibition of growth at 20 µM is 42%.

Q: And the inhibition of growth at 40 µM [3, 13]?
A: The inhibition of growth at 40 µM was 56%.

Q: And the inhibition of growth at 1 µM [3, 14]?
A: The inhibition of growth at 1 µM was 9%.

Q: And the inhibition of growth at 5 µM [3, 14]?
A: Its inhibition of growth at 5 µM is 25%.

Q: What about the inhibition of growth at 20 µM [3, 14] of the same compound?
A: Its inhibition of growth at 20 µM is 34%.

Q: What about the inhibition of growth at 40 µM [3, 14] of the same compound?
A: Its inhibition of growth at 40 µM is 40%.

Q: What about the inhibition of growth at 1 µM [3, 15] of the same compound?
A: Its inhibition of growth at 1 µM is 0%.

Q: And the inhibition of growth at 5 µM [3, 15]?
A: The inhibition of growth at 5 µM was 19%.

Q: What about the inhibition of growth at 20 µM [3, 15] of the same compound?
A: Its inhibition of growth at 20 µM is 28%.

Q: And the inhibition of growth at 40 µM [3, 15]?
A: Its inhibition of growth at 40 µM is 31%.

Q: And the zone of inhibition at 2000 µM ([4]; average of 3 experiments, read-out: width of the inhibition zone (mm), Ps. fluorescens)?
A: The zone of inhibition at 2000 µM was 2.5 mm.

Q: What about the zone of inhibition at 2000 µM [4, 16] of the same compound?
A: Its zone of inhibition at 2000 µM is ≥ 2 mm.

Q: What about the zone of inhibition at 2000 µM ([5]; B109, 2 mM/L, average of 3 experiments, read-out: width of the inhibition zone (mm), M. luteus) of the same compound?
A: Its zone of inhibition at 2000 µM is 4 mm.

Q: What about the zone of inhibition at 2000 µM ([5]; B109, Table S3, 2 mM/L, read-out: Inhibition zone width (mm), not less) of the same compound?
A: The zone of inhibition at 2000 µM was ≥ 4 mm.

Q: And the zone of inhibition at 2000 µM ([6]; average of 3 experiments, read-out: width of the inhibition zone (mm), P. atrosepticum)?
A: The zone of inhibition at 2000 µM was 4 mm.

Q: What about the zone of inhibition at 2000 µM [6, 16] of the same compound?
A: Its zone of inhibition at 2000 µM is ≥ 4 mm.

Q: What about the zone of inhibition at 2000 µM ([7]; average of 3 experiments, read-out: width of the inhibition zone (mm), P. carotovorum subsp. carotovorum) of the same compound?
A: The zone of inhibition at 2000 µM was 3 mm.

Q: What about the zone of inhibition at 2000 µM [7, 16] of the same compound?
A: Its zone of inhibition at 2000 µM is ≥ 3 mm.

Q: What about the zone of inhibition at 2000 µM ([8]; 36 h, 2 mM solutions, dependent on the test system used, read-out: inhibition zone width (mm), range over the test systems) of the same compound?
A: Its zone of inhibition at 2000 µM is 2.5 to 4 mm.

Q: And the “bactericidal activity” value ([8]; Table S2)?
A: Its value is “moderate bactericidal activity”.
